The results in this text go back to patent US20140148477A1, “ANIMAL ECTOPARASITE-CONTROLLING AGENT AND METHOD FOR PREVENTING OR TREATING INFECTION IN ANIMALS CAUSED BY PARASITES BY USING THE CONTROLLING AGENT” (OTSUKA AGRITECHNO CO., LTD., priority 2011, published 2014).

SMILES strings stand for the structures.

The data set is described as follows: Dissolution in acetone when preparing the test solution. Type of data set: physicochemical. Conditions: acetone added so that the concentration was 0.5 mg/ml. Here is the method: Acetone was added to each of Test Compounds 1 to 17 so that the concentration was 0.5 mg/ml, thereby preparing solutions.

In the case of `COC(Cn1nc(-c2cc(F)cc(F)c2)cc1O[C@@H]1CCN(c2ccc(C(F)(F)F)cn2)C[C@@H]1C)OC` [Test Compound 15], the solubility in acetone entry is given as “not dissolved in acetone”.
